Source: ChEMBL document CHEMBL1201862, “PubChem BioAssay data set” (2004)
Calls of active or inactive are those of the source.

Legend:
Assay type in all cases: functional
[1] = molecular target: T1, Kappa-type opioid receptor (Homo sapiens, UniProt P41145); test: KOR antagonists by imaging, SAR follow-up, image-based (AID 2348)
[2] = molecular target: T2, Delta-type opioid receptor (Homo sapiens, UniProt P41143); test: DOR agonists, SAR follow-up, image-based (AID 2370)
[3] = molecular target: T1, Kappa-type opioid receptor; test: KOR agonist analogs, imaging readout, SAR follow-up, image-based (AID 2359)
[4] = molecular target: T3, Mu-type opioid receptor (Homo sapiens, UniProt P35372); test: MOR agonists by imaging, SAR follow-up, image-based (AID 2352)
[5] = molecular target: T2, Delta-type opioid receptor; test: DOR antagonists, SAR follow-up, image-based (AID 2357)
[6] = molecular target: T1, Kappa-type opioid receptor; test: kappa opioid receptor blockers, cell-based, luminescence, beta-arrestin, SAR follow-up (AID 2285)
[7] = molecular target: T4, Short transient receptor potential channel 4 (Mus musculus, UniProt Q9QUQ5); test: mouse TRPC4 channel activators, dose response, cell-based, HEK293 TRPC4/mu-opioid, Fluo-4 calcium (AID 434937)
T4 sequence (Q9QUQ5 whole entry): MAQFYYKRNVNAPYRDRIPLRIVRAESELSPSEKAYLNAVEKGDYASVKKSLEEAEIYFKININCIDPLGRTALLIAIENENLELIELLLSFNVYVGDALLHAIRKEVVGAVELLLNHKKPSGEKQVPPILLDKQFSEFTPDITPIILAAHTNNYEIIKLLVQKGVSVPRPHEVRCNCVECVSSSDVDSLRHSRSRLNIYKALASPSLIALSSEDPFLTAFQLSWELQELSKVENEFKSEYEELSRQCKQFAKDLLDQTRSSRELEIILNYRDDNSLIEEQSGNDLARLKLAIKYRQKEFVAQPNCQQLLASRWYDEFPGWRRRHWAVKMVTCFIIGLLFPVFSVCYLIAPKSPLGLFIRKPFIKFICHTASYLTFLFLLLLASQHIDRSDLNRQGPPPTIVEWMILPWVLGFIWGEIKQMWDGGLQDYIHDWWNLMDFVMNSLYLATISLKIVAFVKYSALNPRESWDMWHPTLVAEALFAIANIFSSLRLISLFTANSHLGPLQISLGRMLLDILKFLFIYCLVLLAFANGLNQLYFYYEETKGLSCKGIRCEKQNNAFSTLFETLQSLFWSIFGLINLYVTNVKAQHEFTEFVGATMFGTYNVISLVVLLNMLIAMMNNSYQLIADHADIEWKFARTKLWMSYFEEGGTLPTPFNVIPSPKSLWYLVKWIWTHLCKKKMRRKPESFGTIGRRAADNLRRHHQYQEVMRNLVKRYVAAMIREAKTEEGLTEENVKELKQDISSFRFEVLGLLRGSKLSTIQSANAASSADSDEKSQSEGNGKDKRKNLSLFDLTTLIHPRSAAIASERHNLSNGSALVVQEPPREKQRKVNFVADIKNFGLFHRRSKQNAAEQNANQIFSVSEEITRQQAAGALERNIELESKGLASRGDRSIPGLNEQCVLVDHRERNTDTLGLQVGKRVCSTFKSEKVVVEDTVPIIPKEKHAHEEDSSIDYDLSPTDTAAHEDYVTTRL

[8] = molecular target: T3, Mu-type opioid receptor; test: MOR antagonists, SAR follow-up, image-based (AID 2420);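 also: compounds added before stimulation of receptor with agonist DAMGO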
[9] = test system: T-cell; test: inhibitors of CD8+ T cell–vesicle binding, dose response, mouse 2C CD8+ T cells, flow cytometry (AID 485284)
[10] = molecular target: T5, G-protein coupled receptor 55 (Homo sapiens, UniProt Q9Y2T6); test: SAR analysis of selective Agonists of GPR55 using an Image-Based Assay - Set 2. [Related pubchem assays (depositor defined):AID1961, AID1965]
[11] = molecular target: T6, G-protein coupled receptor 35 (Homo sapiens, UniProt Q9HC97); test: SAR analysis of Agonists of the GPR35 Receptor using an Image-Based Assay - Set 3. [Related pubchem assays (depositor defined):AID1961, AID1965]
[12] = molecular target: T7, Cannabinoid receptor 1 (Homo sapiens, UniProt P21554); test: SAR analysis of antagonists of the Cannabinoid Receptor 1 using an Image-Based Assay - Set 3. [Related pubchem assays (depositor defined):AID1961, AID1965]
[13] = molecular target: T8, Cannabinoid receptor 2 (Homo sapiens, UniProt P34972); test: SAR analysis of antagonists of the Cannabinoid Receptor 2 using an Image-Based Assay - Set 2. [Related pubchem assays (depositor defined):AID1961, AID1965]
[14] = molecular target: T8, Cannabinoid receptor 2; test: SAR analysis of agonists of the Cannabinoid Receptor 2 using an Image-Based Assay - Set 2. [Related pubchem assays (depositor defined):AID1961, AID1965]
[15] = molecular target: T6, G-protein coupled receptor 35; test: SAR analysis of Antagonists of the GPR35 Receptor using an Image-Based Assay - Set 4. [Related pubchem assays (depositor defined):[…]]
[16] = molecular target: T7, Cannabinoid receptor 1; test: SAR analysis of agonists of the Cannabinoid Receptor 1 using an Image-Based Assay - Set 3. [Related pubchem assays (depositor defined):AID1961, AID1965]
[17] = molecular target: T1, Kappa-type opioid receptor; test: SAR analysis of small molecule agonists of the kappa opioid receptor via a luminescent beta-arrestin assay - Set 3. [Related pubchem assays (depositor defined):AID1777, AID1785, AID1786, AID1966, AID2133, AID2136, AID2284, AID2500]
[18] = molecular target: T5, G-protein coupled receptor 55; test: SAR analysis of selective Agonists of GPR55 using an Image-Based Assay. [Related pubchem assays (depositor defined):AID1961, AID1965]
[19] = molecular target: T7, Cannabinoid receptor 1; test: SAR analysis of antagonists of the Cannabinoid Receptor 1 using an Image-Based Assay. [Related pubchem assays (depositor defined):AID1961, AID1965]
[20] = molecular target: T9, Intestinal-type alkaline phosphatase (Homo sapiens, UniProt P09923); test: Dose Response confirmation of uHTS hits from a small molecule inhibitors of human intestinal alkaline phosphatase via a luminescent assay. [Related pubchem assays (depositor defined):AID2544, AID2574]
[21] = molecular target: T9, Intestinal-type alkaline phosphatase; test: human intestinal alkaline phosphatase activators, dose response, biochemical, luminescence, uHTS hits (AID 463120)

T1 sequence (P41145 whole entry): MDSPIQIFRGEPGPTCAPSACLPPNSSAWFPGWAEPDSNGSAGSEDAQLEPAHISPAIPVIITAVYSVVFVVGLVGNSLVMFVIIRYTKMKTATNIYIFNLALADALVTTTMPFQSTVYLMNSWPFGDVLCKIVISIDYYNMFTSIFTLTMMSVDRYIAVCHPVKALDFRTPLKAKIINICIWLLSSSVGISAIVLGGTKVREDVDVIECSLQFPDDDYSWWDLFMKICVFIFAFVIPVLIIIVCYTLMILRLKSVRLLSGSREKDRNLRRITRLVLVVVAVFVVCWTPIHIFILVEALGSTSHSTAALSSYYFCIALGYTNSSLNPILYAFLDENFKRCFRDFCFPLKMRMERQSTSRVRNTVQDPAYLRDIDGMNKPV
T7 sequence (P21554 whole entry): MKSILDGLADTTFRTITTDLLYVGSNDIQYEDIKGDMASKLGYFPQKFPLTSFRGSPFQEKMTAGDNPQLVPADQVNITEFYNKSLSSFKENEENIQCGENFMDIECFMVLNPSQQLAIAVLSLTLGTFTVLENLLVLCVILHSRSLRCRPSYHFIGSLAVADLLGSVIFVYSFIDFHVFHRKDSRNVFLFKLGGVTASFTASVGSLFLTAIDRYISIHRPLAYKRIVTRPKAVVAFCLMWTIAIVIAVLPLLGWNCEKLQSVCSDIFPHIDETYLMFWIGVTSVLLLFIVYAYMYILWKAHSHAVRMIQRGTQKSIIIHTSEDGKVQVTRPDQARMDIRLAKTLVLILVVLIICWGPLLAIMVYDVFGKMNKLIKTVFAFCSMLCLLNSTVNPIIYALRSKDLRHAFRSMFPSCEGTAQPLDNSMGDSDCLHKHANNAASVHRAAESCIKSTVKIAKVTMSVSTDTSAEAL
T8 sequence (P34972 whole entry): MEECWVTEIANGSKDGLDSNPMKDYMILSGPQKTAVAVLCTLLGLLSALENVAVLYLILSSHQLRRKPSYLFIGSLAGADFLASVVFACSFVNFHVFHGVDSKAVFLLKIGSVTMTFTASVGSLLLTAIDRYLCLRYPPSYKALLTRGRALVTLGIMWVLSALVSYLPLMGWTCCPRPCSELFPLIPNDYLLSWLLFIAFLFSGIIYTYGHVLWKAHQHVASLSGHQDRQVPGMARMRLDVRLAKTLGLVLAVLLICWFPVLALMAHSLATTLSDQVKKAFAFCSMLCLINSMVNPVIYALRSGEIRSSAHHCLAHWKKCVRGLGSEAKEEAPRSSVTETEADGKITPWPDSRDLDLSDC
T5 sequence (Q9Y2T6 whole entry): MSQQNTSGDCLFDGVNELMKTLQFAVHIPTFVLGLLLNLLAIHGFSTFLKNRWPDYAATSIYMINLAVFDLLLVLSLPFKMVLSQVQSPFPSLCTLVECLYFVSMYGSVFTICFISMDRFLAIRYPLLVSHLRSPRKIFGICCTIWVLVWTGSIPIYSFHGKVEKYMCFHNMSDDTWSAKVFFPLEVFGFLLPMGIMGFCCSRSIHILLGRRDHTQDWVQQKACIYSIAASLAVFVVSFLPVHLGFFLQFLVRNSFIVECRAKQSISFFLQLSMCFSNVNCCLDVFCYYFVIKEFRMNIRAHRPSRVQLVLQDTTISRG
T2 sequence (P41143 whole entry): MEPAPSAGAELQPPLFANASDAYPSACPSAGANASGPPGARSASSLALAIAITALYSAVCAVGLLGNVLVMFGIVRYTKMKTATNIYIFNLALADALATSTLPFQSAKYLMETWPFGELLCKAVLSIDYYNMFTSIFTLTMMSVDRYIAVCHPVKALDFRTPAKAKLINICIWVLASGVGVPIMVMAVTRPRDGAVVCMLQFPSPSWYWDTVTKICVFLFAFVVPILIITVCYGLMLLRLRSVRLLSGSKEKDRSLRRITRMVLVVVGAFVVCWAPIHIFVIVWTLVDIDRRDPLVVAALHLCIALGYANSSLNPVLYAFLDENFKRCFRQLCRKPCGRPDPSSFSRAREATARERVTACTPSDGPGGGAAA
T3 sequence (P35372 whole entry): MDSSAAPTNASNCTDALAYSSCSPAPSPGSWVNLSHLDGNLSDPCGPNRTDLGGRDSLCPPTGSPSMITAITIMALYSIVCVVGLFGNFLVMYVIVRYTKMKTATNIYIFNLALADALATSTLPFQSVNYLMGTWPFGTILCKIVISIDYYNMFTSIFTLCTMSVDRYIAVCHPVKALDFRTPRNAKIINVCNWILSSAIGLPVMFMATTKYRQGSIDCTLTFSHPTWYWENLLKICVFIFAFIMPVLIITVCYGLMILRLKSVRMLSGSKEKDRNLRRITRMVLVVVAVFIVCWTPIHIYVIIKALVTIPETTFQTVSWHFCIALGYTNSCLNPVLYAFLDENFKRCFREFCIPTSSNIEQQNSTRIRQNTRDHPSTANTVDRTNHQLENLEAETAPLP
T9 sequence (P09923 whole entry): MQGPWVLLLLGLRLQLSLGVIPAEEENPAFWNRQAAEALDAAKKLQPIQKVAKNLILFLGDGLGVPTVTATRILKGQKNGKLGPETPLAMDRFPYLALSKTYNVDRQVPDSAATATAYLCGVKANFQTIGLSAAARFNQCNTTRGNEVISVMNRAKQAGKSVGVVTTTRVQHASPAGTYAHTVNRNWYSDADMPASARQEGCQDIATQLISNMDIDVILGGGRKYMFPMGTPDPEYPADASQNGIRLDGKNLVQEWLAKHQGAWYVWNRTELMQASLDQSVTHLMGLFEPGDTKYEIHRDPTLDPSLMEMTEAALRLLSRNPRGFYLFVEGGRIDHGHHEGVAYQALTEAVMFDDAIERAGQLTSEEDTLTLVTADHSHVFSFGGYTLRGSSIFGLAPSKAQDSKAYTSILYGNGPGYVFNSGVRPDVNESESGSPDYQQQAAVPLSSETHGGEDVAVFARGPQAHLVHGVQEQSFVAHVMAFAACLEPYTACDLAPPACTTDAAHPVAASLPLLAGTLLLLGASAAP
T6 sequence (Q9HC97 whole entry): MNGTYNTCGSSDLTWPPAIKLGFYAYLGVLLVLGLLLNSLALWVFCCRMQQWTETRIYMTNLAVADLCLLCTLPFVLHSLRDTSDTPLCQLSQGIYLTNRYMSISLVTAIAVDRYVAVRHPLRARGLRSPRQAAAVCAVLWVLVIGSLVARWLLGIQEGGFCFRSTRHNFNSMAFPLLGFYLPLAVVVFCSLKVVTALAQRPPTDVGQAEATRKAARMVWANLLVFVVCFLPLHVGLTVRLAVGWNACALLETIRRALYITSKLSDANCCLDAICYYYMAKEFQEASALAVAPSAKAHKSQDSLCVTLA

`CC(=O)c1ccc(S(=O)(=O)NCc2ccc(C(=O)NCC(c3ccccc3)N(C)C)cc2)cc1` (stereo not drawn) was tested, and the IC50 [1] was 4.73 µM (active), the EC50 [2] was 1.6 µM (active) and the EC50 [3] was > 32 µM (inactive). For the same molecule, the EC50 [4] was > 32 µM (inactive), the IC50 [5] was > 32 µM (inactive) and the IC50 [6] was 6.72 µM (active). For the same molecule, the EC50 [7] was 0.596 µM (active) and the IC50 [8] was 1.92 µM (active).

For `CCCCn1c(N)c(N(CCOC)C(=O)c2ccc(-c3ccc([N+](=O)[O-])cc3)o2)c(=O)[nH]c1=O`, the EC50 [9] was 23.9 µM (inactive).

`Cc1cc2cc3c(cc2n2c(SCC(=O)Nc4nc(-c5ccccc5)cs4)nnc12)OCO3` was tested, and the EC50 [10] was 0.0648 µM (active), the EC50 [11] was > 32 µM (inactive) and the IC50 [12] was 15.8 µM (inactive). The IC50 [13] was > 32 µM (inactive), the EC50 [14] was > 32 µM (inactive) and the IC50 [15] was > 32 µM (inactive). For the same molecule, the EC50 [16] was > 32 µM (inactive).

In the case of `Brc1ccc(CSc2nnc(-c3ccc(Br)cc3)n2Cc2ccco2)cc1`, the EC50 [17] is reported as 11.3 µM (inactive).

`COc1ccc(-c2csc(NC(=O)CSc3nnc4c(C)cc5ccccc5n34)n2)cc1` was tested, and the EC50 [18] was 0.658 µM (active), the IC50 [19] was > 32 µM (inactive) and the IC50 [13] was > 32 µM (inactive). The EC50 [14] was > 32 µM (inactive).

In the case of `CC(=O)c1ccc(NC(=O)C2CCCN2S(=O)(=O)c2cccs2)cc1` (stereo not drawn), the IC50 [20] is reported as > 100 µM (inactive) and the EC50 [21] is reported as > 100 µM (inactive).
